Results as given in US10640544B2, “Antibody-coupled cyclic peptide tyrosine tyrosine compounds as modulators of neuropeptide Y receptors” (JANSSEN PHARMACEUTICA NV, priority 2016, dated 2020).

Tests used:
[1] = OGTT in DIO mice after 8 days of treatment (blood glucose, insulin); type: in vivo, mouse; settings: 8 days treatment, 0.3 nmol/kg s.c. every day
Experimental: (§1) Compound 1 was evaluated for its ability to reduce foot intake and body weight and improve glucose homeostasis on repeat dosing in male DIO C57Bl/6 mice over a period of 8 days. Male DIO C57BL/6N mice (20 weeks of age, 14 weeks on high fat diet) were obtained from Taconic Laboratory. […] Animals were acclimated to the facility for at least one week prior to the start of the experiment.
(§2) The day prior to dosing, mice were grouped based on individual body weights. At 3:00-4:[…] for each of the next 8 days, animals and food intake were weighed. […] After 8 days, mice are fasted for 5 hours and then given a 2 g/kg bolus of glucose orally at t=0. At t=0, 30, 60, 90, and 120 minutes post glucose challenge blood glucose is measured and at t=0, 30, and 90 minutes blood in drawn to measure plasma insulin. […] All data are presented as the mean±SEM (FIG. 7, FIG. 8, and Tables 8-11).

[2] = Weight loss in diet-induced obese mice: chronic dosing (body weight, fed blood glucose); type: in vivo, mouse; settings: DIO mice, after 8 days of treatment; 0.3 nmol/kg s.c. every day
Experimental: as §1, §2

[3] = Single dose effect on food intake and body weight in Sprague-Dawley rats; type: in vivo, rat; set-up: body weight change: unit not given here; settings: single dose 0.3 nmol/kg s.c.
Experimental: Compound 1 was evaluated for its ability to reduce foot intake and body weight in Sprague-Dawley after a single dose. The animals were obtained from Charles River Labs (Wilmington, Mass.) at 200-225 g body weight and used within one week of delivery. They were housed one per cage on alpha dry bedding and a plastic tube for enrichment in a temperature-controlled room with 12-hour light/dark cycle. […] Animal weights were taken and recorded for each rat prior to dosing.
Body weights and food intake were measured 1, 2 and 3 days after dosing and the percentages of weight loss and reduction in food intake were calculated. […] All data are presented as the mean±SEM (Tables 18-20).

## Dulaglutide: long-acting GLP-1 receptor agonist, comparator
[1]
  blood glucose Delta AUC (OGTT): 6668 ± 1846 mg/dl/120 min
  blood glucose Total AUC (OGTT): 15758 ± 1054 mg/dl/120 min
[1]; 0 min after glucose challenge
  blood glucose during OGTT: 76 ± 9 mg/dL
  insulin during OGTT: 0.6 ± 0.1 ng/mL
[1]; 30 min after glucose challenge
  blood glucose during OGTT: 151 ± 14 mg/dL
  insulin during OGTT: 1.7 ± 0.2 ng/mL
[1]; 60 min after glucose challenge
  blood glucose during OGTT: 174 ± 17 mg/dL
[1]; 90 min after glucose challenge
  blood glucose during OGTT: 104 ± 10 mg/dL
  insulin during OGTT: 0.7 ± 0.2 ng/mL
[1]; 120 min after glucose challenge
  blood glucose during OGTT: 119 ± 9 mg/dL
[2]
  fed Blood Glucose: 114 ± 13 mg/dL
[3]
  Total Food Consumption over three days: 87.4 ± 2.0
[3]; Day 0
  body weight change: 0.0 ± 0.0
  daily food intake: 26.6 ± 0.8
[3]; Day 0, in g (unit assumed)
  absolute body weight: 270.3 ± 3.0
[3]; Day 1
  body weight change: 10.6 ± 1.6
  daily food intake: 27.3 ± 1.2
[3]; Day 1, in g (unit assumed)
  absolute body weight: 280.8 ± 4.2
[3]; Day 2
  body weight change: 22.5 ± 0.8
  daily food intake: 30.0 ± 0.7
[3]; Day 2, in g (unit assumed)
  absolute body weight: 292.47 ± 3.6
[3]; Day 3
  body weight change: 28.7 ± 0.6
  daily food intake: 30.1 ± 0.7
[3]; Day 3, in g (unit assumed)
  absolute body weight: 299.0 ± 3.3
[3]; Day −1 (relative to Day 0)
  body weight change: −6.3 ± 0.8
[3]; Day −1, in g (unit assumed)
  absolute body weight: 264.0 ± 3.1
